Source: US20190159449A1, “USE OF NON-PROLINE CYCLIC AMINO ACIDS TO INCREASE THE TOLERANCE OF PLANTS TO CONDITIONS OF OSMOTIC STRESS” (CONSEJO SUPERIOR DE INVESTIGACIONES CIENTÍFICAS (CSIC), priority 2016, published 2019)
Marks after values point to notes of the source that are not given here.

Tests used:
Assay type in all cases: in vivo
Arabidopsis thaliana = test: Salt stress (50 mM NaCl) growth assay of hydroponically grown Arabidopsis thaliana after 24 h root treatment; conditions: for Fresh weight / RGR (relative growth rate) / S.I (sensitivity index) / % reduction RGR: 2.5 mM treatment 24 h; for Fresh weight: aerial part; for Effect on growth and tolerance to salt stress (in words): 2.5 mM treatment, 50 mM NaCl; for S.I (sensitivity index) / % reduction RGR: 7 days with 50 mM NaCl; for S.I (sensitivity index): S.I = DWs − DWc/DWc; for % reduction RGR: relative to control conditions
Method: The conditions described below were used as the base for all examples included below. The growing conditions, such as the nutrient solution and the substrate used have been optimized to perform this type of experiments. Likewise, the dose of NaCl used has been optimized for this type of experiments since 50 mM makes it possible to evaluate if a treatment is capable of increasing tolerance to salinity (Jiménez-Arias et al., 2015. Environmental and Experimental Botany 120, 23-30).
A hydroponic culture system was used for the cultivation of the Arabidopsis thaliana plants necessary for the assays. This system was established in hydroponics trays with 1.9 L capacity (Araponics®) wherein 18 plants were grown per container. A mixture of river sand with two different granulometries was used as physical substrate. The seeds were sowed in seed-holders, which were deposited during one week in a small greenhouse consisting of a high-density polyethylene tray with river sand (washed siliceous sand, with medium granulometry) with sterile distilled water covered with a transparent plastic sheet which was deposited in a growth chamber at 22±2° C., with a photoperiod of 16 hours of light (100-110 μmol m-2 s-1 of PAR) and with 100% relative humidity. After one week, the seed-holders with the seedlings were transferred to the hydroponics trays in the same photoperiod and light intensity conditions but with 60-70% of relative humidity. The seedlings were maintained without aeration during the first week, after this the solution (Table 1) was generously aerated using aeration pumps and was renewed every 7 days.
(§1) In this way, 21-day old plants were treated during 24 hours in nutrient solution enriched with a concentration of 2.5 mM of alanine. Subsequently, the plants were deposited in normal nutrient solution for 24 hours and they later grew for 7 days in nutrient solution with or without a supply of 50 mM of NaCl. This experiment was repeated twice, using 12 plants per experiment, with the value shown in table 2 being the average of 24 plants for each one of the conditions.
Subsequently, the wet weight of the aerial part of the plants was determined.
as §1, with “21-day” for “In this way, 21-day”, “pyroglutamic acid or pipecolinic acid.” for “alanine.”
The plants were deposited in nutrient solution enriched with one of the compounds indicated above for 24 hours and they later grew for 7 days in nutrient solution with a supply of 50 mM of NaCl. As control, the plants grown on nutrient solution and NaCl were used. This experiment was repeated twice, using 12 plants per experiment, with the value shown in table 2 being the average of 24 plants for each one of the conditions.
Two measurements were used in order to illustrate the defence to salt stress. First, the values for the sensitivity index (S.I) described by Saadallah et al. (2001, Agronomie 21, 627-634) is shown.
The greater the negative value of the S.I., the greater the negative effect of salinity on the plant. The second measurement is a percentage of reduction in the relative a growth rate of the plant subjected to conditions of salt stress.

[1] = test system: Solanum lycopersicum (tomato); test: Salt stress growth assay of hydroponic tomato plants after 24 h root treatment; conditions: 2.5 mM; for Decrease in growth in saline conditions with respect to growth in the control solution: 7 days in NaCl solution, fresh weight; for Increase in tolerance compared with the proline treatment / Increase in tolerance compared with the control: saline conditions; for Increase in tolerance compared with the proline treatment: versus proline 2.5 mM; for Increase in tolerance compared with the control: versus reference group
Method: As an example, tomato (Solanum lycopersicum) of the variety Realeza pear was used. […] From the first day, the solution was generously aerated by air pumps (30 min per day). The plants were maintained during two days with this proportion of solution and distilled water, and then they were removed from the medium and placed, under the same conditions, in plastic containers during 24 hours with the different treatments in distilled water (table 5): After 24 hours, the plants were again introduced in the trays with the same proportion of distilled water/nutrient solution stated above and they were maintained like this for 48 hours. […] Then, the growth of treated and untreated plants was compared, in normal conditions and salinity conditions. For the statistical analysis, the data collected was subjected to the normality test of the Kolmogorov-Smirnov test with the Lilliefors correction. Levene's test was used to verify the homoscedasticity of the data. As the data behaved following a normal distribution, its measurements were compared by one-way ANOVA and the significant differences were calculated using the Bonferroni post hoc test. The statistical analyses were performed with the SSPS computer package, version 20 for Windows.

[2] = test system: Solanum lycopersicum (tomato); test: Drought (water deficit) assay of tomato in greenhouse conditions; conditions: four root treatments at 2.5 mM, after 10 days of drought; for Net photosynthesis: versus drought reference
Method: The crop used was tomato (Solanum lycopersicum) of the “Gransol” capa negra variety. The experiment was performed in a glass greenhouse with four tables measuring 10 metres in length by 2 metres in width. Drip irrigation was used, supplied by self-compensated drippers to control the flow of water at all times.
5-week old seedings were transplanted to 2-litre capacity pots using a mixture of peat and river sand to facilitate drainage. In total, 120 tomato plants were used. Four treatments were performed on 40 plants after the transplant (with 15 days between each treatment), adding 50 ml of a 2.5 mM concentration of Pyroglutamic to each pot.
Another 40 plants were treated via root applications using 2.5 mM of pipecolinic acid. The remaining plants randomly distributed throughout the greenhouse were treated with distilled water by way of control. The drought assay commenced on completing the four treatments, which was performed by removing the dripper from the 20 plants randomly chosen for each one of the treatments. The plants were deprived of water for 10 days.
The relative water content of the leaf was estimated after 10 days of drought for each one of the treatments, in control conditions and drought conditions, using 15 leaves. The following formula was used for this:
R.W.C(%)/=[(Fw−Dw)/(Tw−Dw)]×100
With Fw: fresh weight; Dw: dry weight; Tw: turgor weight. RWC is the measurement most commonly used to estimate the possible water deficit a plant leaf has.
Furthermore, photosynthesis was estimated with the “Lc-pro sd” system (ADC Bioscientific). To do this, the tomato leaves were stimulated with a light source at 1000 μmol m-2 s-1, with this light intensity being previously estimated to achieve the maximum photosynthesis in our crop and conditions. To do this, the parameters of net photosynthesis (A) and evapotranspiration (E) were determined, calculating with them the efficiency in water use (A/E) as described by Lambers et al. (2008. Plant Physiological Ecology. 2nd edition. Springer, New York). The measurements were taken after 10 days of assay from six plants for each one of the treatments.
The data of the different variables were subjected to the normality test using the Kolmogorov-Smirnov test with the Lilliefors correction. Levene's test was used to verify the homoscedasticity of the data. As the data behaved following a normal distribution, its measurements were compared by one-way ANOVA and the significant differences were calculated using the Bonferroni post hoc test. The statistical analyses were performed with the SSPS computer package, version 20 for Windows.

[3] = 7 days in nutrient solution with 50 mM NaCl (saline conditions)
[4] = 7 days in nutrient solution without NaCl (optimal conditions)
[5] = 7 days with 50 mM NaCl (saline conditions)
[6] = 7 days without NaCl (optimal conditions)

How did the Fresh weight (Arabidopsis thaliana; [3]) turn out when C[C@H](N)C(=O)O [Alanine, alanine, reference compound] was run?
The Fresh weight was 36 ± 2 mg plant.

And the Fresh weight (Arabidopsis thaliana; [4])?
The Fresh weight was 142 ± 8 mg plant.

What about the “RGR (relative growth rate)” value (Arabidopsis thaliana; [5]) of the same compound?
The value was 0.11**.

What about the “RGR (relative growth rate)” value (Arabidopsis thaliana; [6]) of the same compound?
Its value is 0.58.

And the “Effect on growth and tolerance to salt stress (in words)” value (“Effect on growth and tolerance” below) (Arabidopsis thaliana)?
The value was “not capable of promoting growth, nor increasing tolerance to salinity”.

With O=C1CC[C@@H](C(=O)O)N1 [Pyroglutamic acid, pyroglutamic acid] as the compound, how does the Fresh weight (Arabidopsis thaliana; [3]) read?
Its Fresh weight is 170.4 ± 15 mg plant.

What about the Fresh weight (Arabidopsis thaliana; [4]) of the same compound?
Its Fresh weight is 183.9 ± 15 mg plant.

What about the “RGR (relative growth rate)” value (Arabidopsis thaliana; [5]) of the same compound?
Its value is 0.49.

And the “S.I (sensitivity index)” value (Arabidopsis thaliana)?
Its value is −0.1**.

And the “% reduction RGR” value (Arabidopsis thaliana)?
Its value is 10.22** %.

And the “RGR (relative growth rate)” value (Arabidopsis thaliana; [6])?
Its value is 0.56.

What about the “Effect on growth and tolerance” value (Arabidopsis thaliana) of the same compound?
Its value is “effect on the increased tolerance to salt stress is proven”.

What about the “Decrease in growth in saline conditions with respect to growth in the control solution” value (from here on “Decrease in growth in saline conditions”) [1] of the same compound?
Its value is 9%.

What about the “Increase in tolerance compared with the proline treatment” value [1] of the same compound?
The value was 78%.

What about the “Increase in tolerance compared with the control” value [1] of the same compound?
The value was 72%.

What about the “Decrease in relative water content of the leaf with respect to its control” value [2] of the same compound?
Its value is “did not show this decrease”.

And the Net photosynthesis [2]?
The Net photosynthesis was “greater than the drought reference plants”.

For O=C(O)[C@@H]1CCCN1 [Proline, proline], which “Decrease in growth in saline conditions” value [1] is on record?
Its value is 42%.

How did the Fresh weight (Arabidopsis thaliana; [3]) turn out when O=C(O)C1CCCCN1 (stereo not shown) [Pipecolinic acid, pipecolinic acid] was run?
Its Fresh weight is 133.9 ± 21 mg plant.

And the Fresh weight (Arabidopsis thaliana; [4])?
Its Fresh weight is 145.9 ± 22 mg plant.

And the “RGR (relative growth rate)” value (Arabidopsis thaliana; [5])?
The value was 0.45.

And the “S.I (sensitivity index)” value (Arabidopsis thaliana)?
Its value is −0.07**.

What about the “% reduction RGR” value (Arabidopsis thaliana) of the same compound?
The value was 8.12** %.

What about the “RGR (relative growth rate)” value (Arabidopsis thaliana; [6]) of the same compound?
Its value is 0.46.

What about the “Effect on growth and tolerance” value (Arabidopsis thaliana) of the same compound?
The value was “effect on the increased tolerance to salt stress is proven”.

And the “Decrease in growth in saline conditions” value [1]?
The value was 7%.

What about the “Increase in tolerance compared with the proline treatment” value [1] of the same compound?
Its value is 83%.

And the “Increase in tolerance compared with the control” value [1]?
Its value is 78%.

And the “Decrease in relative water content of the leaf with respect to its control” value [2]?
The value was 5.1%.

And the Net photosynthesis [2]?
Its Net photosynthesis is “greater than the drought reference plants”.

How did the “S.I (sensitivity index)” value (Arabidopsis thaliana) turn out when O=C(O)[C@@H]1C[C@@H](O)CN1 [Hydroxyproline, hydroxyproline, reference compound] was run?
Its value is −0.25**.

And the “% reduction RGR” value (Arabidopsis thaliana)?
Its value is 24.34** %.

And the “Decrease in growth in saline conditions” value [1]?
Its value is 17%.

What about the “Decrease in growth under control conditions with respect to the reference” value ([1]; 7 days, control solution without salt, plant weight) of the same compound?
Its value is 35%.
